Experiment [1] concerns the target T1, PA-hST8Sia VI (human ST8Sia VI) (Homo sapiens, UniProt P61647, L267F).
T1 construct: amino acids 68-398 in the case of human ST8Sia VI; signal peptide of mouse immunoglobulin IgM (N); made in house; host or cells: COS-7 cells, transient expression of pcDSA-hST8Sia VI; protein recovered from medium on IgG-Sepharose
T1 sequence (P61647 68-398 L267F): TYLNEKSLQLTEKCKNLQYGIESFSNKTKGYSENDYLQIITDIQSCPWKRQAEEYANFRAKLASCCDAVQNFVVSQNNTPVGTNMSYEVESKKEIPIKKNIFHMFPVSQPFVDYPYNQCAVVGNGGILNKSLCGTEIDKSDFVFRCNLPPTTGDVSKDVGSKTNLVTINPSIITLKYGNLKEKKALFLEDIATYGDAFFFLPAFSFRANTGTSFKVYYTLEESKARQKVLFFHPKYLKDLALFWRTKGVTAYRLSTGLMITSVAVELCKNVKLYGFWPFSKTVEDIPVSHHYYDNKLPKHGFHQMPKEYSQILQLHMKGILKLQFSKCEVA
Put plainly: Sialyltransferase activity of PA-hST8Sia VI toward acceptor substrates. The class given is biochemical. As to conditions: incorporation with Fetuin taken as 100, substrate 0.5 mg/ml glycolipids, 1 mg/ml glycoproteins, monosaccharides and oligosaccharides. The protocol:
(§1) Using each expression vector and lipofectamine (Invitrogen), transient expression was carried out in COS-7 cells (Kojima, N. et al. (1995) FEBS Lett. 360, 1-4). The proteins of the present invention secreted from the cells into which each expression vector had been introduced were named as PA-mST8Sia VI (mouse) and PA-hST8Sia VI (human). PA-mST8Sia VI and PA-hST8Sia VI were adsorbed to IgG-Sepharose (Amersham Pharmacia Biotech), and were then recovered from medium. Sialyltransferase activity was measured as follows according to the method of Lee et al. (Lee, Y.-C. et al. (1999) J. Biol. Chem. 274, 11958-11967). A reaction solution (10 μl) containing 50 mM MES buffer (pH 6.0), 1 mM MgCl2, 1 mM CaCl2, 0.5% Triton CF-54, 100 μM CMP-[^14C]-NeuAc, a glycoconjugate (which was added at 0.5 mg/ml in the case of glycolipids, and at 1 mg/ml in the case of glycoproteins or oligosaccharides), and a PA-mST8Sia VI or PA-hST8Sia VI suspension, was incubated at 37° C. for 3 to 20 hours. Thereafter, in the case of glycolipids, the reaction product was purified with a C-18 column (Sep-Pak Vac 100 mg; Waters) and the purified product was used as a sample, and in the case of oligosaccharides or glycoproteins, the reaction product was directly used as a sample. Thus, the obtained samples were subjected to analysis. In the case of oligosaccharides or glycolipids, the sample was spotted on a silica gel 60 HPTLC plate (Merck), and was then developed with a developing solvent consisting of ethanol:pyridine:n-butanol:water:acetic acid=100:10:10:30:3 (for oligosaccharides), a developing solvent consisting of 1-propanol:ammonia water:water=6:1:2.5 (for oligosaccharides), or a developing solvent consisting of chloroform:methanol: 0.02% CaCl2=55:45:10 (for glycolipids). In the case of glycoproteins, analysis was carried out by SDS-polyacrylamide gel electrophoresis. The obtained radioactivities were visualized with a BAS2000 radio image analyzer (Fuji Film) and then quantified.

Experiment [2] addresses T2, PA-mST8Sia VI (mouse ST8Sia VI) (Mus musculus, UniProt Q8K4T1).
T2 construct: amino acids 26-398 in the case of mouse ST8Sia VI; signal peptide of mouse immunoglobulin IgM (N); made in house; host or cells: COS-7 cells, transient expression of pcDSA-mST8Sia VI; protein recovered from medium on IgG-Sepharose
T2 sequence (Q8K4T1 26-398): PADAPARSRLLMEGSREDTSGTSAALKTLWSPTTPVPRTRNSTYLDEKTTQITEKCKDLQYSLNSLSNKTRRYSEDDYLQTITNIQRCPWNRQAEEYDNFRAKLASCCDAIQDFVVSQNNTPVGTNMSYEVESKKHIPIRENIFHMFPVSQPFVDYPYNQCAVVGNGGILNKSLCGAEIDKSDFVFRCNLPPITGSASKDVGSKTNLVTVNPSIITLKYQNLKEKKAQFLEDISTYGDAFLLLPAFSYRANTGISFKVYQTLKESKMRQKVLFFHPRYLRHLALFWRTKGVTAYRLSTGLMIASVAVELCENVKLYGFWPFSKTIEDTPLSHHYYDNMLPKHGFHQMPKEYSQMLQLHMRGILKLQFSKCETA
Put plainly: Sialyltransferase activity of PA-mST8Sia VI toward acceptor substrates. The class given is biochemical. The settings on record: for Relative rate (%) Mouse ST8SiaVI: incorporation with Fetuin taken as 100, substrate 0.5 mg/ml glycolipids, 1 mg/ml glycoproteins, monosaccharides and oligosaccharides. The procedure:
as §1

Here are results for six molecules from patent US20060057696A1, “Sugar chain synthases” (priority 2002, published 2006).

On to “NeuAcα2,8NeuAcα2,3Galβ1,4Glcβ1-Cer [GD3]”, for which the “Relative rate (%) Human ST8Sia VI” value in experiment [1] is given as 0%. Also, the “Relative rate (%) Mouse ST8SiaVI” value in experiment [2] is 0%.
In the case of “NeuAcα2,8Galβ1,3GalNAcβ1,4(NeuAcα2,8NeuAcα2,3)Galβ1,4Glcβ1-Cer [GT1b]”, the “Relative rate (%) Human ST8Sia VI” value in experiment [1] came to 2.2%. Besides, in experiment [2], the “activity of PA-mST8Sia VI on the substrate (in words)” value is “showed activity” and the “Relative rate (%) Mouse ST8SiaVI” value stood at 1.1%.
On the same counts, the results for “NeuAcα2,3Galβ1,3GalNAcβ1,4(NeuAca2,3)Galβ1,4Glcβ1-Cer [GD1a]” are 1.8%, “showed activity” and 6.0%.
Turning to “NeuAcα2,8NeuAcα2,8Galβ1,3GalNAcβ1,4(NeuAcα2,8NeuAcα2,3)Galβ1,4Glcβ1-Cer [GQ1b]”, the “Relative rate (%) Human ST8Sia VI” value in experiment [1] came out at 0%. For the same molecule, in experiment [2], the “Relative rate (%) Mouse ST8SiaVI” value is 0%.
Take `CC(=O)N[C@H]1[C@H]([C@H](O)[C@H](O)CO)O[C@@](O[C@H]2[C@@H](O)[C@@H](CO)O[C@@H](O[C@H]3[C@H](O)[C@@H](O)C(O)O[C@@H]3CO)[C@@H]2O)(C(=O)O)C[C@@H]1O` (some centres unmarked) [3′-Sialyllactose, NeuAcα2,3Galβ1,4Glc]: in experiment [1], the “Relative rate (%) Human ST8Sia VI” value was 69.9%. Further, the “Relative rate (%) Mouse ST8SiaVI” value in experiment [2] is 629%.
On the same counts, the results for `CC(=O)NC1C(O)CC(OCC2OC(OC3C(CO)OC(O)C(O)C3O)C(O)C(O)C2O)(C(=O)O)OC1C(O)C(O)CO` (centres unmarked) [6′-Sialyllactose, NeuAcα2,6Galβ1,4Glc] are 10.7% and 91.5%.
